# Entries after “also recorded” stand apart in the source; their conditions may differ. Where a SMILES comes first, the peptide text is derived from it. The star is where a group is joined. Cbz = O=C(OCc1ccccc1)*
# Assays:
# cathepsin B = cathepsin B (Homo sapiens, UniProt P07858); experiment: Purified cathepsin B enzyme activity (Z-RR-AMC to 7-AMC); format: biochemical; details: same concentration range (0.0003-30 μM)
# Procedure: FIG. 28. A) 0.0003-30 μM NU-9 was combined with purified cathepsin B enzyme in the presence of the cathepsin B substrate Z-RR-AMC. Cathepsin B enzyme activity was measured by the rate of 7-AMC production by fluorescence. Percent change in rate with NU-9 was quantified in the graph. […] B) Mature hippocampal neurons were treated with NU-9 for 30 minutes, then Magic Red was used to monitor intracellular cathepsin L activity. Cells were treated in 3 wells.
# AβOs bound to neurons = experiment: AβOs bound to dendrites of hippocampal neurons treated with Aβ42 monomer (immunofluorescence, NU2/NU4); format: cell-based, rat; details: for influence of lysosome acidification inhibitor on the effect of NU-9: Bafilomycin A 100 nM, 30 min prior to 3 μM NU-9, then 500 nM Aβ monomer 30 min; for AβO accumulation under cathepsin L inhibition: 10 μM cathepsin L inhibitor 1 h, 500 nM Aβ 30 min
# acidic lysosomes = experiment: Lysotracker labelling of acidic compartments in hippocampal neurons; format: cell-based, rat; details: addition of control Bafilomycin A
# Procedure: FIG. 24. Mature E18 hippocampal neurons were treated 3 μM NU-9, and subsequently labelled with lysotracker. A) total immunofluorescence (integrated density), B) mean intensity, C) average size of acidic compartments, D) number of acidic compartments.
# cathepsin L = cathepsin L (Homo sapiens, UniProt P07711); experiment: Purified cathepsin L enzyme activity (Z-FR-AMC to 7-AMC); format: biochemical; details: same concentration range (0.0003-150 μM)
# cathepsin L, sequence (P07711 114-333, species assumed): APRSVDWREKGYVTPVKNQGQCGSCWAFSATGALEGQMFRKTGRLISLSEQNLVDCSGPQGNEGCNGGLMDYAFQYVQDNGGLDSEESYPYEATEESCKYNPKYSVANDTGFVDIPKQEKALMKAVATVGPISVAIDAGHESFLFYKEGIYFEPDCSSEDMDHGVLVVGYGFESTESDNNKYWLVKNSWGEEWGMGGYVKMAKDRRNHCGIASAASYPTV
# Procedure: FIG. 26. A) 0.0003-150 μM NU-9 was combined with purified cathepsin L enzyme in the presence of the cathepsin L substrate Z-FR-AMC. Cathepsin L enzyme activity was measured by the rate of 7-AMC production by fluorescence. Percent change in rate was quantified in the graph. […] B) Mature hippocampal neurons were treated with NU-9 for 30 minutes, then Magic Red was used to monitor intracellular cathepsin L activity. Cells were treated in 3 wells, and 9-22 images were analyzed per condition.
# No effect of 0.0003-150 μM NU-9 was observed on the cathepsin L activity as measured by the production rate of 7-AMC from Z-FR-AMC by purified cathepsin L enzyme.
molecule,measurement,setting,value
CCCNC(=O)[C@H]1O[C@@H]1C(=O)N[C@H](C(=O)N1CCC[C@H]1C(=O)O)[C@@H](C)CC [CA-074],"cathepsin B activity, standard inhibitor",cathepsin B,Clear inhibition of enzyme activity
same,influence of cathepsin B inhibitor on the effect of NU-9,"AβOs bound to neurons; 10 μM CA-074 24 h, 3 μM NU-9 30 min, 500 nM Aβ monomer 30 min",prevented the effect of NU-9
MDL-28170,AβO accumulation under calpain inhibition,"AβOs bound to neurons; 10 μM MDL-28170 30 min, 500 nM Aβ42 30 min",reducing AβO accumulation; also recorded: may mimic the effect of NU-9
CC(C)C[C@H](NC(=O)[C@H]1O[C@@H]1C(=O)O)C(=O)NCCCCN=C(N)N [E64],"number of bound AβOs, inhibitor alone","AβOs bound to neurons; E64 10 μM, 24 h, Aβ monomer 500 nM 30 min",significantly reduced the number of bound AβOs
same,influence of cysteine cathepsin inhibitor on the effect of NU-9,"AβOs bound to neurons; E64 10 μM, 24 h, then NU-9 3 μM 30 min, Aβ monomer 500 nM 30 min",did not significantly change the effectiveness of NU-9; also recorded: does not prevent the effect of NU-9
CC(C)C[C@@H](C=O)NC(=O)[C@H](CC(C)C)NC(=O)[C@H](CC(C)C)NC(=O)OCc1ccccc1 [MG132] (Cbz-Leu-Leu-Leu-aldehyde),formation of AβOs under proteasome inhibition,"AβOs bound to neurons; 100 nM MG132 30-min pre-treatment, 500 nM Aβ42",no effect on formation of AβOs
same,influence of proteasome inhibition on reduction of AβO accumulation by NU-9,"AβOs bound to neurons; 100 nM MG132 30 min, 3 μM NU-9 30 min, 500 nM Aβ42",no effect on formation of AβOs or reduction of AβO accumulation by NU-9
CO/C1=C\C(C)=C\[C@@H](C)[C@@H](O)[C@@H](C)C/C(C)=C/C=C/[C@H](OC)[C@@H]([C@@H](C)[C@@H](O)[C@H](C)[C@@]2(O)C[C@@H](O)[C@H](C)[C@@H](C(C)C)O2)OC1=O [Bafilomycin A],"integrated fluorescent density of lysotracker, control",acidic lysosomes,significantly reduced
same,neuron-binding AβOs with lysosome inhibitor in the absence of NU-9,"AβOs bound to neurons; 100 nM bafilomycin A 30 min, Aβ monomer 500 nM 30 min, vs Aβ monomer alone",did not lead to the formation of significantly more neuron-binding AβOs
same,influence of lysosome acidification inhibitor on the effect of NU-9,AβOs bound to neurons,prevents the effect of NU-9 on AβOs bound to synapses; also recorded: significantly prevented the effect of NU-9
same,influence of lysosome acidification inhibitor on the effect of NU-9,AβOs bound to neurons; listed as Bafilomyicin A,prevented the effect of NU-9
O=C[C@H](Cc1ccc(O)cc1)NC(=O)[C@H](Cc1ccccc1)NC(=O)OCc1ccccc1 [Z-FY-CHO] (Cbz-Phe-Tyr-aldehyde),"cathepsin L activity, standard inhibitor",cathepsin L,reduced cathepsin L activity
same,AβO accumulation under cathepsin L inhibition,AβOs bound to neurons,mimicked the effect of NU-9
same,AβO accumulation under cathepsin L inhibition,AβOs bound to neurons; listed as Cathepsin L inhibitor,prevents AβO accumulation
Ic1cccc(/C=N/Nc2nc(N3CCOCC3)nc(N(c3ccccc3)c3ccccc3)n2)c1 [vacuolin-1],influence of inhibition of lysosome maturation and exocytosis on NU-9,"AβOs bound to neurons; 1 μM vacuolin-1 1 h pre-treatment, 3 μM NU-9 30 min, 500 nM Aβ42",prevented the effectiveness of NU-9
